Reference: patent US6849639B2, “Integrin inhibitors and their methods of use” (Amgen Inc., priority 1999, dated 2005)
Structures can show the parent of a compound that is named as a salt.

| Structure (SMILES) | melting point |
| --- | --- |
| O=C(O)CC(NC(=O)C1CC(=O)N(c2cccc(NC(=S)NCc3ccccc3)c2)C1)c1cccnc1 (centres unmarked) (as salt: sodium) [Example 20, 3-({5-oxo-1-(3-({(benzylamino)thioxomethyl}amino)phenyl)pyrrolidin-3-yl}carbonylamino)-3-(3-pyridyl)propanoic acid, sodium salt] | 230 °C (dec.) |
| O=C(O)CC(NC(=O)C1CC(=O)N(c2cccc(NC(=S)NCc3ccc(F)cc3)c2)C1)c1cccnc1 (centres unmarked) (as salt: sodium) [Example 21, 3-((1-{3-(({((4-fluorophenyl)methyl)amino}thioxomethyl)amino)phenyl}-5-oxopyrrolidin-3-yl)carbonylamino)-3-(3-pyridyl)propanoic acid, sodium salt] | 230 °C (dec.) |
| CC(C)CCNC(=S)Nc1cccc(N2CC(C(=O)NC(CC(=O)O)c3cccnc3)CC2=O)c1 (centres unmarked) (as salt: sodium) [Example 23, 3-({1-(3-({((3-methylbutyl)amino)thiooxomethyl}amino)phenyl)-5-oxopyrroidin-3-yl}carbonylamino)-3-(3-pyridyl)propanoic acid, sodium salt] | 250 °C (dec.) |
| O=C(O)CC(NC(=O)C1CC(=O)N(c2cccc(NC(=S)NCc3ccco3)c2)C1)c1cccnc1 (centres unmarked) (as salt: sodium) [Example 22, 3-({1-(3-({((2-furylmethyl)amino)thioxomethyl}amino)phenyl)-5-oxopyrrolidin-3-yl}carbonylamino)-3-(3-pyridyl)propanoic acid, sodium salt] | 240 °C (dec.) |
| CCCCNC(=S)Nc1cccc(N2CC(C(=O)NC(CC(=O)O)c3cccnc3)CC2=O)c1 (centres unmarked) (as salt: sodium) [Example 24, 3-{(1-(3-{((butylamino)thioxomethyl)amino}phenyl)-5-oxopyrrolidin-3-yl)carbonylamino}-3-(3-pyridyl)propanoic acid, sodium salt] | 235 °C (dec.) |
